Measurements: patent US7387999B2, “Simmondsin for use as angiogenesis inhibitor” (priority 2002, dated 2008)
Read-outs that look alike come from different tables or passages of the source.

Assays:
[1] = test system: chorion allantois membrane (CAM); assay: chorion allantois membrane (CAM) assay; type: in vivo, chicken; details: for effect on blood vessel growth in the CAM (in words): Experiment 1
Protocol: Fertilized chicken eggs are incubated during 4 days at 37° C. Subsequently, the egg shell is opened to disclose the CAM. In order to reduce the pressure on the CAM for improving its manipulating properties, 2 to 3 ml albumen is removed. The opening is closed using cellophane tape and the eggs are further incubated until day 9 for application of the liquid test compounds using different concentrations. Dulbecco's modified Eagle medium (DMEM) was used as a negative control, whereas Vascular Endothelial Growth factor (VEGF) was used as a positive control (stimulator of angiogenesis). A total polar extract from refined, de-oiled jojoba flour, dimethylsimmondsin purified from this extract and a commercially known angiogenesis inhibitor (Tangeritin) were compared in their angiogenesis-inhibiting activity towards VEGF stimulated angiogenesis in the CAM's. Each of these solubilized test compositions was pipetted on a sterile plastic disc (10 mm diameter) and dried under sterile conditions.
Each disc was treated with cortisone acetate (100 μg/50 μl) in order to avoid inflammatory reactions. After drying, the discs were placed on the CAM with the charged side facing the CAM. The control disc (DMEM) was placed at 1 cm of the disc containing the test component. The opening was sealed with cellophane tape and the eggs were further incubated. At day 11, the tape and discs were removed and 10% buffered formaline was sprayed over the CAM. Eggs were allowed to dry for 2 to 4 h at room T°. Then, the CAM was cut out of the egg and mounted on a glass slide. The vascular density index is measured according to Harris-Hooker et al. (1983; J. Cell. Physiol. 114:302-310); all micro vessels that cross 3 concentric circles with a diameter of 6, 8 and 10 mm were counted, as illustrated on FIG. 2.
The angiogenetic Index (AI) is expressed as {(t/c)×100}−100, whereby t=total number of crossing vessels where the disc containing the test component was located, and c=total number of crossing vessels where the control disc was located. […]

human oestrogen receptor = biological target: T1, human oestrogen receptor (Homo sapiens, UniProt P03372); assay: oestrogenic bioassay; type: cell-based; details: yeast with human oestrogen receptor; 1, 10, 100, 1000 μM; 3 days; compared to 17 beta-oestradiol standards, FIG. 11
T1 construct: expressed in transfected cells; host or cells: Saccharomyces cerevisiae (recombinant yeast)
T1 sequence (P03372 1-595): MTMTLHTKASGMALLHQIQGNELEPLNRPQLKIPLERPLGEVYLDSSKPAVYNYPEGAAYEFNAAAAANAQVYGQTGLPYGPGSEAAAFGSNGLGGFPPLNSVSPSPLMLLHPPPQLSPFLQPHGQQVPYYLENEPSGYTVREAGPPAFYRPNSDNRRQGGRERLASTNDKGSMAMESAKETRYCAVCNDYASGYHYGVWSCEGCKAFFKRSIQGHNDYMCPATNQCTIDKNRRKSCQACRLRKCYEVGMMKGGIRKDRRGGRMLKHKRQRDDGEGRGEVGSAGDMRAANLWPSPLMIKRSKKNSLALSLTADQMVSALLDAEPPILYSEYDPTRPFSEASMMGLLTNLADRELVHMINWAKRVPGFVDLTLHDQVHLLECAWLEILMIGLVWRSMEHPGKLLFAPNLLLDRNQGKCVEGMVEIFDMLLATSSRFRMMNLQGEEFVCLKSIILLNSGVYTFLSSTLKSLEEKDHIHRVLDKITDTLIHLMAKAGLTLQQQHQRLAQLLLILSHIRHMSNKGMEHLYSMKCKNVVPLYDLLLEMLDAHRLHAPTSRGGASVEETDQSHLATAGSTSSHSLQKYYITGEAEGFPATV
Protocol: In an experiment, yeast cells (Saccharomyces cerevisiae) containing a human oestrogen receptor (100 μl) was added to 25 ml growth medium. The growth medium comprised • D-glucose (2.5 ml from 20 g D-glucose in 80 ml water); • L-aspartic acid (0.625 ml from 400 mg in 100 ml water); • vitamin solution (0.250 ml from 8 mg thiamine, 8 mg pyridoxine, 8 mg panthotenic acid, 40 mg inositol and 20 ml biotin solution (2 mg in 100 ml water) in 180 ml water); • L-threonine (0.2 ml from 2.4 g in 100 ml water), copper(II)sulphate (0.0625 ml from 160 mg in 50 ml water); • minimal medium (22.5 ml from 1 l water composed of 13.61 g potassium dihydrogenphosphate, 1.98 g ammonium sulphate, 4.2 g potassium hydroxide, 1 ml iron(III)sulphate (40 mg in 50 ml water), 50 mg L-leucine, 50 mg L-histidine, 50 mg adenine, 20 mg L-arginine hydrochloride, 20 mg L-methionine, 30 mg L-tyrosine, 30 mg L-isoleucine, 30 mg L-lysine hydrochloride, 25 mg L-phenylalanine, 100 mg L-glutamic acid, 150 mg L-valine, 375 mg L-serine); and chlorophenol red beta-D-galactopyranoside (0.250 ml).
17 beta-oestradiol (20 μl aliquots from 0.008 nM to 100 nM, prepared from 10 mg in 10 ml ethanol) and test compounds, in concentrations of 1, 10, 100, 1000 μM, were pipetted into 96-well plates in a sterile flow hood. The solvent was left to evaporate for about 40 min.
The growth medium containing yeast was dispensed to all wells, except blank wells, in aliquots of 100 μl. The plates were incubated at 32° C. in a humidified atmosphere for 3 days, and then read at 540/360 nm by a microtiter plate reader (labsystems Muliskan Ascent Reader, Thermo labsystems, Vantaa, Finland).

angiogenesis = details: in vitro and in vivo assays
[2] = test system: human microvascular endothelial cells (hMVEC); assay: in vitro angiogenesis assay: tube formation in 3-D fibrin matrices; type: cell-based; details: hMVEC on 3-D fibrin matrix, VEGF-A 25 ng/mL and TNFα 10 ng/mL, 7 days, FIG. 8
Protocol: Human fibrin matrices were prepared by the addition of 0.1 U/ml thrombin to a commercially obtained (Chromogenix AB, Mölndal, Sweden) mixture of 2 mg/ml fibrinogen (final concentrations), 2 mg/ml Na-citrate, 0.8 mg/ml NaCl, 3 μg/ml plasminogen in M199 medium and 2.5 U/ml factor XIII. 100 μl aliquots of this mixture were added to the wells of 96-well plates. After clotting at room temperature, the fibrin matrices were soaked with M199 supplemented with 10% HS and 10% NBCS for 2 h at 37° C. to inactivate the thrombin. […] Invading cells and the formation of tubular structures of hMVEC in the three-dimensional fibrin matrix were analysed by phase contrast microscopy. The total length of tube-like structures of four microscopic fields (7.3 mm^2/field) were (clockwise) measured using an Olympus CK2 microscope equipped with a monochrome CCD camera (MX5) connected to a computer with Optimas image analysis software, and expressed as mm/cm^2 (Koolwijk et al. J. Cell Biol. 1996, 132:1177-188).
HMVEC were cultured on top of a 3-D fibrin matrix in M199, 10% human serum, 10% NBCS supplemented with VEGF-A (25 ng/mL) and TNFα (10 ng/mL) in the presence or absence of the indicated concentrations (w/v) of the compositions A1, A2, A3, A4, A5, B4, B5 and B6. […] The data are expressed as the mean of two wells indicated by the error bars (FIG. 8 B).

4,5-dimethylsimmondsin [A4]
effect on blood vessel growth in the CAM (in words) [1]: significant angiogenesis inhibition comparable with tangeritin
angiogenesis-inhibiting activity in the CAM (in words) ([1]; Experiments 2 and 3, A4 in the same concentration as the total polar extract): lower than the total polar extract but nevertheless still significant
oestrogen-like activity (human oestrogen receptor): no significant oestrogen-like activity

4,5-dimethylsimmondsin ferulate (cis/trans) [A5]
angiogenesis-inhibiting activity (overall conclusion) (angiogenesis): higher angiogenesis-inhibiting activity than the unsubstituted dimethylsimmondsin
angiogenesis-inhibiting activity (overall conclusion) (angiogenesis; listed as dimethylsimmondsin ferulates): significant angiogenesis-inhibiting activity, which is higher than the activity of unsubstituted dimethylsimmondsin

COC1CC(OC2OC(CO)C(O)C(O)C2O)C(=CC#N)C(O)C1O (stereo not shown) [4-desmethylsimmondsin]
oestrogen-like activity (human oestrogen receptor): no significant oestrogen-like activity

CO[C@H]1[C@@H](O)C[C@@H](O[C@@H]2O[C@H](CO)[C@@H](O)[C@H](O)[C@H]2O)/C(=C\C#N)[C@@H]1O [5-desmethylsimmondsin]
oestrogen-like activity (human oestrogen receptor): no significant oestrogen-like activity

N#CC=C1CC(O)C(O)C(O)C1O[C@@H]1O[C@H](CO)[C@@H](O)[C@H](O)[C@H]1O (stereo partly shown) [B5, 4,5-didesmethylsimmondsin]
inhibition of VEGF-induced in vitro tube formation [2]: highest biological activity
oestrogen-like activity (human oestrogen receptor): no significant oestrogen-like activity

COc1cc(C=CC(=O)OC2C(OC3CC(OC)C(OC)C(O)C3=CC#N)OC(CO)C(O)C2O)ccc1O (stereo not shown) [E simmondsin-2′-ferulate]
oestrogen-like activity (human oestrogen receptor): no significant oestrogen-like activity

COc1cc(/C=C\C(=O)O[C@@H]2[C@@H](O[C@@H]3C[C@H](OC)[C@H](OC)[C@@H](O)/C3=C/C#N)O[C@@H](CO)[C@H](O)[C@H]2O)ccc1O [Z simmondsin-2′-ferulate]
oestrogen-like activity (human oestrogen receptor): no significant oestrogen-like activity

VEGF [reference compound]
effect on blood vessel growth in the CAM (in words) [1]: significant blood vessel growth compared with the negative control group (DMEM)

desmethylsimmondsin
inhibition of VEGF-induced in vitro tube formation [2]: highest biological activity
